Measurements as given in publication PMC9925432, “Thioquinoline derivatives conjugated to thiosemicarbazide as potent tyrosinase inhibitors with anti-melanogenesis properties” (Scientific Reports, 2023).
“Also recorded” adds a separate entry of the source. Where two headings read alike, the source gives them in different places.

Experiments:
[1] = set-up: method as in PMID 33640246; details: at 8 µM; cited from earlier work
[2] = biological target: T1, Mushroom tyrosinase (EC 1.14.18.1) (Agaricus bisporus, UniProt C7FF04); experiment: Tyrosinase inhibitory assay (colorimetric, diphenolase activity, L-Dopa); type: biochemical; details: L-Dopa as substrate; means ± RSD of 3 independent experiments
T1 construct: purchased Sigma Chemical Co
T1 sequence (C7FF04 1-392 limits assumed): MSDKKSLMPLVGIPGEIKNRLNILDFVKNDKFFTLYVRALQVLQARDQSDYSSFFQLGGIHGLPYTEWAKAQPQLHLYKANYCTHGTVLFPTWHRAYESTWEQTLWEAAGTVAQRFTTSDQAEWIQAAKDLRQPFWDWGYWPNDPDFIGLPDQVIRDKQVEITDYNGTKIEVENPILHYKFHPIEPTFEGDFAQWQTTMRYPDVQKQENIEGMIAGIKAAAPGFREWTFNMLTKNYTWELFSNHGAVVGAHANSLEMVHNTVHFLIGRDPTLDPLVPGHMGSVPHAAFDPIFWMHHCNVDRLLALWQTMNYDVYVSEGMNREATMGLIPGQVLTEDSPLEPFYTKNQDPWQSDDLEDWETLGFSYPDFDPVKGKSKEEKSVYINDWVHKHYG
Protocol: Mushroom tyrosinase (EC 1.14.18.1) (Sigma Chemical Co.) was assayed using L-Dopa as the substrate as reported in our previous studies with some modifications[30]–[32]. The enzyme diphenolase activity was monitored spectrophotometrically by observing dopachrome formation at 490 nm. All the test samples were first dissolved in DMSO at 10 mM and diluted to the required concentrations. Initially, in a 96-well microplate, 10 µl of test samples were added to 160 µl of 50 mM phosphate buffer (pH = 6.8) and then 10 µl tyrosinase (500 U mL^−1) was added. After the mixture was pre-incubated at 28 °C for 20 min, 20 µl of L-Dopa solution (7 mM) was added to the mixture. After 10 min incubation absorbance of samples was measured. DMSO without test compounds was used as the control, and kojic acid was used as a positive control. Each assay was conducted as three separate replicates. The inhibitory activity of the tested compounds was expressed as the concentration that inhibited 50% of the enzyme activity (IC50). […]

[3] = system: A375 cells; experiment: MTT assay for cell viability, A375; type: cell-based; details: up to 32 μM
Protocol: (§1) The cytotoxic activity of all derivatives against the HEK 293 cell line and 10g against A375 (at a density of 5 × 10^3 cells/ml) using 3-(4,5-dimethylthiazol-2-yl)-2,5- diphenyltetrazolium bromide (MTT) assay were performed. Cells were grown at 37 °C in the presence of CO2 5% in DMEM (Gibco BRL, Grand Island, NY, USA), 10% fetal bovine serum (FBS, Gibco BRL), and penicillin/streptomycin (100 IU/mL and 100 µg/mL, respectively). Next cells were seeded in a 96-well plate and incubated at 37 ^∘C with derivatives at different concentrations for 48 h. Following the treatment, cells were incubated with MTT (0.5 mg/ml) at 37 ^∘C for 3 h. The MTT-containing medium was then removed, and 100 μl of DMSO was added to each well, mixed thoroughly with a 10 min shake to dissolve formazan crystals. The absorbance of each well was measured at 540 nm[33].

[4] = MTT assay for cell viability, A375; type: cell-based; details: human, A375 cells, 48 h, mean ± S.E.M.
Protocol: as §1

[5] = system: tyrosinase; experiment: Fluorescence quenching of tyrosinase (Stern–Volmer); type: binding
Protocol: The fluorescent measurements were carried out in each well of the black 96 well plate by adding various concentrations of inhibitor 10g, (Q = 5, 10, 20, 40, and 100 µM) to a constant concentration of tyrosinase (273 IU/mL). Next, phosphate buffer solution (0.05 M, pH = 6.8) was used to bring the capacity of each well to 200 µL. Before measurements, all solutions were properly mixed and allowed to stand for 20 min at 298 K and 304 K. A fluorescence spectrometer (BioTek’s multi-mode plate reader, USA) was used to measure the fluorescence spectra. The bandwidths of excitation and emission were both set at 5 nm, and fluorescence emission spectra were captured spanning the wavelength range of 310–400 nm at an excitation wavelength of 280 nm.
The linear Stern–Volmer Eq. (1) was used to examine the fluorescence quenching:1 F0/F=1+kqτ0Q=1+kSV[Q] where, F and F0 represent the fluorescence intensity in the presence or absence of inhibitors, respectively. The bimolecular quenching constant is denoted by the symbol kq, whereas the average lifespan of a biomolecule without a quencher is denoted by the symbol τ0, and its value is 10^−8 s. [Q] refers to the inhibitor concentration (µM). KSV which is calculated by kq . τ0. is the fluorescence quenching constant.
In order to calculate the apparent binding constant and binding fraction of fluorophore group of tyrosinase accessible to inhibitor 10g, Stern–Volmer Eq. (1) should be modified to Eq. (2):2 LogF0-F/F=log KA+n LogQ
In this equation, KA indicates either the modified apparent binding constant or the Stern–Volmer quenching constant. n represents the fraction of fluorophore accessible to the quencher. The intercept of the curve that is obtained by plotting log (F0-F/F) versus log [Q] is log KA, and the slope of the curve is n. Therefore, the intercept and slope data may be used to calculate the values of KA and n.

[6] = system: A375 cell line; experiment: Melanin content assay; type: cell-based; details: A375, 48 h, at tested concentrations, kojic acid positive control
Protocol: The assay was performed according to previously reported procedures. In detail, A375 cells were seeded in six-well plates (2.0 × 10^5 cells/well). After 24 h, the medium was replaced by a fresh one and treated with 10g at different concentrations and the plate was incubated for an extra 48 h. After that cells were washed twice with PBS and harvested using […], then dissolved in 300 μl of 1 N NaOH/10% DMSO buffer and boiled for 2 h at 80 °C to solubilize the melanin. The absorbance of the supernatant was measured at 470 nm in a microplate reader. The obtained results were normalized using total protein content. Kojic acid was used as a positive[30],[34].

[7] = MTT assay for cell viability, HEK 293; type: cell-based; details: human, HEK 293 cells, 48 h, MTT, mean ± S.E.M.
Protocol: as §1

[8] = system: HEK 293 cell line; experiment: MTT assay for cell viability, HEK 293; type: cell-based; details: HEK 293, 32 µM, 48 h, MTT; mean ± S.E.M.; 32 µM
Protocol: as §1

[9] = system: mushroom tyrosinase; experiment: Enzyme kinetic study (Lineweaver–Burk plot); type: biochemical
Protocol: The Lineweaver–Burk reciprocal plot was provided by plotting 1/V against 1/[S] at variable concentrations of the substrate L-Dopa (0.25, 0.5, 0.75, and 1 mM) The inhibition constant Ki was achieved by the plot of slopes versus the corresponding concentrations of the compound 10g[24].

[10] = system: melanoma cells; set-up: method as in PMID 28393917; details: cited from earlier work
[11] = biological target: mushroom tyrosinase; details: cited from earlier work

O=c1cc(CSc2nc3ccccc3c(=O)n2Cc2ccccn2)occ1O [C]
melanin content [1]: 68.99%

NC(=S)N/N=C/c1cc2ccccc2nc1SCC(=O)Nc1ccc(Cl)cc1 [Compound 10g, (E)-2-((3-((2-carbamothioylhydrazono)methyl)quinolin-2-yl)thio)-N-(4-chlorophenyl)acetamide]
IC50 [2]: 25.7 µM
toxicity on A375 cell line [3]: did not show significant toxicity
viability at 48 h, 16 µM ([4]; A375, 16 µM): 93.7 ± 2.24%
viability at 48 h, 32 µM ([4]; A375, 32 µM): 87.5 ± 1.53%
viability at 48 h, 64 µM ([4]; A375, 64 µM): 61.2 ± 3.91%
KA (binding constant) ([5]; 298 K): 71150 L/mol
Kq (bimolecular quenching constant) ([5]; 298 K): 6.69 × 10^12 L⋅mol^–1⋅s^–1
Ksv (Stern–Volmer constant) ([5]; 298 K): 6.69 × 10^4 L.mol^–1
n (binding sites) ([5]; 298 K): 0.9288
n (binding sites) ([5]; 298 K and 304 K): ~1
Kq (bimolecular quenching constant) ([5]; 298 K and 304 K, all values): higher than 2 × 10^10 L⋅mol^−1⋅s^−1
KA (binding constant) ([5]; 304 K): 52200 L/mol
Kq (bimolecular quenching constant) ([5]; 304 K): 5.14 × 10^12 L⋅mol^–1⋅s^–1
Ksv (Stern–Volmer constant) ([5]; 304 K): 5.14 × 10^4 L.mol^–1
n (binding sites) ([5]; 304 K): 1.0604
melting point: 185 to 191 °C
effect on melanin content [6]: reduced the melanin content; also recorded: significant reduction of melanin content
viability at 48 h, 16 µM ([7]; HEK 293, 16 µM): 92.7 ± 1.47%
viability at 48 h, 32 µM ([7]; HEK 293, 32 µM): > 85%
viability at 48 h, 64 µM ([7]; HEK 293, 64 µM): 72.5 ± 2.41%
Cell viability (%) [8]: 86.14 ± 2.17%
Km ([9]; 10g 1 µM): 800 µM
Vmax ([9]; 10g 1 µM): 80.00 mM/min
Km ([9]; 10g 10 µM): 850 µM
Vmax ([9]; 10g 10 µM): 67.57 mM/min
Km ([9]; 10g 20 µM): 850 µM
Vmax ([9]; 10g 20 µM): 50.25 mM/min
Km ([9]; 10g 40 µM): 950 µM
inhibition pattern (type of inhibition) ([9]; Lineweaver–Burk plot, L-Dopa as substrate): noncompetitive

Oc1cnc2c(O)cccc2c1 [Jineol]
effect on melanin content [10]: reduced melanin content
IC50 ([11]; L-Dopa as substrate): 50.35 ± 0.05 µM
IC50 ([11]; L-tyrosine as substrate): 39.46 ± 0.01 µM
